This is an account of results in a melting point compilation (Tetko et al.; mined from patent text by program, amines drawn as free bases though some values may be those of a salt).

Broadly, the melting point is the temperature of the solid-liquid transition.

Some results are limits rather than exact numbers.

In turn, `CN1CC[C@@H](c2c(O)cc(O)c3c(=O)cc(-c4cccc(Cl)c4)oc23)[C@@H]1CO` came in with a melting point of 146 to 147 °C.
The same measure for `COC(=O)C(C)(NC1OC(=O)C2C3C=CC(C3)C12)c1ccccc1` (stereo not drawn): 120 °C; for `CCC1=CC(Cl)(NC2CCC(C(C(=O)OC)C(=O)OC)CC2)NC=N1` (stereo not drawn): 82 to 83 °C.
On to `CC(C)N(c1nc(Cl)nc(N2C(C)(C)CC3(CC2(C)C)OCCO3)n1)C(C)C`, for which the melting point was 179 to 184 °C.
The molecule `O=[N+]([O-])c1ccc2sc(=Nc3ccccc3)sc2c1` gave a melting point of 136 to 138 °C.
The value for `CCOc1cccc(F)c1C1OC(=O)NC1=O` (stereo not drawn) was 127 to 128 °C; that for `CCOC(=O)c1cnn(-c2c(Cl)cc(C(F)(F)F)cc2Cl)c1C` was 61 to 62 °C.
The same measure for `CN1C(C(=O)Nc2cccccc2=O)=C(O)c2ccccc2S1(=O)=O`: 259 to 261 °C; for `Cc1[nH]c(C(=O)NCCc2ccccn2)c(C)c1-c1nc2ccc(C(=O)c3ccccc3)cc2[nH]1`: 238 to 244 °C; for `O=c1[nH]c2ncc(-c3cn[nH]c3)nc2n1CC1CCOCC1`: 238 to 240 °C.
Take `CC(Cc1ccc(OCc2ccccc2)cc1)NC(=O)CC(c1ccccc1)c1ccccc1` (stereo not drawn): the melting point was in the range of 121 to 125 °C.
The same measure for `COC(=O)C1=C(C(=O)OC)c2c([nH]c3ccccc23)CC1`: 249 °C; for `CCOC(=O)C1=C(C)NC(C)=C(C(=O)OCC)C1c1csc2ccc([N+](=O)[O-])cc12`: 255 to 259 °C; for `O=C(Nc1ccccc1)N1CCc2ccccc2C1`: 145 to 146 °C.
Take `Cn1nc(N)nc1NCCCOc1cccc(C2OCCO2)c1`: the melting point fell in the range of 117 to 118 °C.
The same measure for `COCCCc1cc(Cl)cc2nc(Cc3ccccc3Cl)oc12`: 49 to 51 °C; for `CCc1ccc2c(c1)C=Cc1cc(C)ccc1C2c1cn(-c2ccnc(N(C)CC(=O)Nc3nc(CC(=O)O)cs3)n2)c(=O)[nH]c1=O` (stereo not drawn): 188 °C.
For `O=C1NCCNN1c1cc(Cl)c(Sc2ccc(Cl)cc2)c(Cl)c1`, the melting point fell in the range of 242 to 243 °C.
Turning to `Cn1ncnc1COc1nc2c(-c3ccccc3F)nncn2c1C1CCC1`, the melting point was 120 °C.
The value for `CCCCCCCCC#CCC#CCC#CCS(=O)(=O)CC(=O)OC` was 69 °C.
The same measure for `C=CCSc1ccc(-c2nc3cnncc3[nH]2)c(OC)c1`: 240 °C; for `Cc1c([N+](=O)[O-])ccc2[nH]cc(CCCO)c12`: 129 to 130 °C.
The same measure for `N#Cc1cc[nH]c1-c1cc2ccccc2o1`: 157 to 160 °C; for `CN1C(=O)C(NC(=O)Nc2cccc(Br)c2)N(C)C1=O` (stereo not drawn): 173 to 182 °C.
In turn, `CCOC(=O)C(C)(C)C(O)C(c1ccc(Cl)cc1)n1ccnc1` (stereo not drawn) showed a melting point of 120 to 124 °C.
The value for `CCc1c(OCc2ccccc2)nc(OCc2ccccc2)nc1C(C#N)c1cc(C)cc(C#N)c1` (stereo not drawn) was 139 to 141 °C; that for `CC(CN(C(C)C)C(C)C)N1C(=O)C(=O)c2ccccc21` (stereo not drawn) was 70 to 71 °C.
For `CN1CCC(c2cc(-c3ccncc3)c(-c3cccc(C(F)(F)F)c3)nn2)CC1`, the melting point fell in the range of 188 to 189 °C.
The value for `COc1ccc(CC2(C)CN(C(c3ccccc3)c3ccccc3)CCN2C(C)=O)cc1OC` (stereo not drawn) was 116 °C.
The same measure for `C[C@@H](Nc1nnc(-c2ccccc2)c2occc12)C1CCCCC1`: 126 to 130 °C; for `COc1ccc(-c2cc(=O)n(C)c(=O)n2C)cc1OC`: 118 to 120 °C.
The same measure for `CCOC(=O)C1=C(C)NN=C(CC)C1c1cccc2ccccc12` (stereo not drawn): 122 °C; for `COc1ccc(C(=O)c2ccc(OCc3nc(-c4cccc(OS(C)(=O)=O)c4)oc3C)cc2)c(OC(C)(C)C(=O)O)c1`: 182 to 183 °C.
Regarding `O=c1ccn(-c2cc3[nH]c(=O)c(=O)[nH]c3cc2[N+](=O)[O-])cc1`, the melting point is > 300 °C.
With `C=CC(=O)OCC(=O)OCCCCCCOC(=O)COC(=O)C=C`, the melting point was determined as 66 °C.
`NC(=O)N1C(=O)C(C(=O)c2cccs2)c2ccncc21` (stereo not drawn) showed a melting point of 213 to 215 °C.
The value for `C[C@H]1C(=O)NC2CCC(=O)N21` (stereo partly drawn) was 84 to 86 °C.
The same measure for `COc1nc2ccc3c(c2o1)C(CCNC(C)=O)CC3` (stereo not drawn): 126 to 128 °C; for `Cc1oc(-c2ccccc2)nc1COc1ccc(CCC2OC(=O)NC2=O)cc1` (stereo not drawn): 158 to 159 °C.
As to `O=C(c1ccc(C2CCCCC2)cc1)N1Cc2cccn2Cc2ncccc21`, the melting point was 150 to 152 °C.
The same measure for `CC(C)(C)c1ccc(S(=O)(=O)Nc2nc(Cl)ncc2Oc2ccccc2Cl)cc1`: 186 to 187 °C; for `CCOC(=O)c1c(C(C)(C)O)nc(CO)n1Cc1ccc(-c2ccccc2-c2nnnn2C(c2ccccc2)(c2ccccc2)c2ccccc2)cc1`: 151 to 152 °C.
Consider `O=C(Nc1cccnc1)c1cccc(-c2ccc3c(c2)C(Oc2ccc(Cl)cc2Cl)CC3)c1` (stereo not drawn), for which the melting point lay in the range of 188 to 189 °C.
`COc1ccc(CSc2nnc(-c3ccn4ncnc4c3)o2)cc1C(F)(F)F` came in with a melting point of 178 to 179 °C.
`C#CCOc1cc(C=O)cc(Cl)c1OCC#C` came in with a melting point of 64 to 65 °C.
The value for `CCn1cc2c(n1)c(N)nc1ccccc12` was 240 to 241 °C.
In turn, `N#Cc1c(Cl)c2cc(F)cnc2[nH]c1=O` had a melting point of 272 °C.
Molecule `O=C(Nc1ccccc1)N1C(=O)[C@H](O)[C@@H]1c1ccccc1` had a melting point of 197 to 200 °C.
The value for `Cn1c(C(F)(F)F)cc(=O)n(-c2ccc3snc(C(Br)C#N)c3c2)c1=O` (stereo not drawn) was 185 to 187 °C.
Molecule `COc1ccccc1NC(=O)Nc1nc(Nc2ccccc2-c2ccccc2)nc(N(CCC(=O)O)Cc2cc(C(F)(F)F)cc(C(F)(F)F)c2)n1` displayed a melting point of 132 to 135 °C.
In the case of `CCCC(O)c1cc(-c2ccc(F)cc2)oc1C` (stereo not drawn), the melting point is 96 to 97 °C.
Molecule `N#Cc1ccc(-c2oncc2CCCO)cc1` yielded a melting point of 82 to 83 °C.
For the molecule `O=c1ccc2ccc(CBr)cc2o1`, the melting point lay in the range of 172 to 176 °C.
The same measure for `N=C(N)c1ccc2cc(OC(=O)CCCCCN)ccc2c1`: 122 to 123 °C; for `CCc1cc(NC(=O)c2nnn(Cc3ccc(OC)cc3)n2)c(O)c(C(C)=O)c1`: 159 to 160 °C.
The same measure for `O=C(Nc1cccc(C(=O)O)c1)Oc1ccccc1`: 131 to 133 °C; for `CN(C)c1nc2ccccc2n(-c2ccc(Cl)cc2)c1=O`: 235 to 237 °C.
Consider `O=C(Nc1cc2ncc(CN3CCCC3)cc2cc1Cl)c1ccc(-c2ccc(Cl)s2)cc1`, for which the melting point stood at 185 °C.
The same measure for `Cc1nc(CCn2cnc3c2c(=O)[nH]c(=O)n3C)no1`: 258 to 260 °C; for `Cc1c(C)c(N2CCN(c3ccn(C)n3)CC2)c(C)c2c1OC(C)(C)C2`: 147 to 149 °C.
Regarding `NC(=O)c1ncn(C2OC(CO)C(O)C2O)c1C(N)=O` (stereo not drawn), the melting point fell in the range of 224 to 226 °C.
On to `CCOC(=O)c1csc(-c2ccc3c(=O)n(CC(C)C)c(CNC(=O)OC(C)(C)C)c(-c4ccccc4)c3c2)n1`, for which the melting point lay within 170 to 171 °C.
The same measure for `CCOC(=O)C1=C(C)NN=C(C(=O)O)C1c1cccc(Cl)c1` (stereo not drawn): 182 °C.
The same measure for `COc1cc2c(cc1Cl)C(O[Si](C)(C)C)(c1ccccc1Cl)C(=O)N2` (stereo not drawn): 211 to 212 °C.
Molecule `CC(C)(C)OC(=O)N1CCN(S(=O)(=O)c2ccc(Br)s2)CC1` registered a melting point of 127 °C.
The molecule `C=C1CN(S(=O)(=O)c2ccc(C)cc2)CCCN(Cc2ccccc2)CCCN(S(=O)(=O)c2ccc(C)cc2)C1` registered a melting point of 156 to 158 °C.
For `NC(=O)C1=NN(c2cccc(COCC3CCCCC3)c2)C(c2ccccc2F)N1` (stereo not drawn), the melting point lay in the range of 148 to 149 °C.
Regarding `Cc1ccc(OCc2c(F)cccc2F)c(N)n1`, the melting point is 121 to 123 °C.
Molecule `COCCOc1ncccc1S(N)(=O)=O` showed a melting point of 102 to 103 °C.
The same measure for `Nc1cc(OCC(O)CO)nc(N)n1` (stereo not drawn): 160 °C.
Molecule `CCOC(=O)OC1=C(c2cc(C)ccc2C)C(=O)N(OCOC)C12CCN(OC)CC2` came in with a melting point of 109 to 111 °C.
Regarding `Cc1ccc(N2CN(C)CNC2=S)cc1`, the melting point lay within 176 to 178 °C.
Molecule `COC(=O)C(C)(C)Cc1c(C(=O)C2CC2)c2cc(OCc3ccc4ccccc4n3)c(C(=O)C3CC3)cc2n1Cc1ccc(Cl)cc1` had a melting point of 166 to 167 °C.
The same measure for `CCCc1c(OCCCS(=O)(=O)c2ccc(C(=O)O)cn2)ccc(C(C)=O)c1O`: 177 to 179 °C; for `CCOC(=O)c1cc(CCCOCCCCCCNCC(O)c2cc(Cl)c(N)c(Cl)c2)ccn1` (stereo not drawn): 68 to 70 °C; for `COC(=O)c1cc(-c2ccccc2)c(=O)n2c1-c1sccc1CC2`: 116 °C.
The same measure for `O=C(O)Cc1ccc2onc(-c3ccc(Cl)cc3)c2c1`: 189 °C.
The same measure for `O=C(O)C1CCc2[nH]c3ccccc3c2C1` (stereo not drawn): 198 to 199 °C.
Molecule `CC1=C(c2c[nH]c(-c3ccc(F)cc3)c2-c2ccncc2)CCN2CCC[C@@H]12` displayed a melting point of 233 to 234 °C.
The same measure for `Clc1ccc2c(c1)C(c1ccccc1Cl)=CCc1nncn1-2`: 189 to 190 °C.
The value for `CC1(C)CCC(C)(C)c2cc(-c3cn(-c4ccc(C(=O)O)cc4)c(S)n3)ccc21` was 170 to 172 °C.
On to `O=C(O)Cc1cc(=O)c(O)cn1Cc1ccccc1`, for which the melting point fell in the range of 231 to 235 °C.
The value for `CCCCCc1c(-c2ccc3cc(OCc4nnn[nH]4)ccc3c2)n(Cc2ccccc2)c2ccccc12` was 109 to 112 °C; that for `CCOC(=O)C1=C(COCCNS(N)(=O)=O)NC(C)=C(C(=O)OC)C1c1cccc(Cl)c1Cl` (stereo not drawn) was 89 to 90 °C; that for `CCCCCCCCCCCCOC(=O)NCCCCC(N)C(=O)O` (stereo not drawn) was > 260 °C.
The value for `CCC1=NC(=NOC(=O)NC)SC1(C)C` was 98 to 100 °C; that for `CC(=O)Nc1cc(O)ccc1-c1cc(=O)c2ccccc2o1` was 253 to 255 °C; that for `COc1ccc2c(c1)CCC2n1cc[nH]c1=S` (stereo not drawn) was 195 to 196 °C.
